Laboratory results reported in publication PMC8290231 (Cancer Medicine, 2021).
Read-outs that look alike come from different tables or passages of the source.

Legend:
Ba/F3‐FGFR1‐K656N = experiment: CCK-8 proliferation assay in Ba/F3 stable cells; format: cell-based; details: Mus musculus, read-out: IC50 (μΜ) Ba/F3‐FGFR1‐K656N
Protocol: (§1) The Ba/F3 cell lines stably expressing FGFR1, FGFR1‐V561M, FGFR1‐V561F, FGFR1‐K656N, and FGFR1‐K656E were self‐established through electroporation pCDNA3.1‐TEL plasmids using the Amaxa Cell Line Nucleofector Kit V (Lonza, Cologne, Germany). Stable cell lines were selected by G418 (Merck, USA) and then withdrawal of IL‐3 (R&D). […] Parental Ba/F3 cells were maintained in RPMI 1640 supplemented with 10% FBS, 100 U/ml of penicillin, […] of streptomycin, and 10 ng/ml of IL‐3, while all Ba/F3 stable cell lines were cultured in the same medium without IL‐3.
(§2) Cells were seeded in 96‐well plate in complete medium (1000–6000 cells/well) and cultured for overnight. Then the cells were exposed to gradient concentrations (0.0005–10 μM) of compounds. Cell proliferation was analyzed by Cell Counting Kit 8 (CK04, Dojindo Laboratories, Japan) after co‐incubation for a further 72 h. IC50 values were calculated by fitting of concentration–response curves using GraphPad Prism 8.01 software. Each assay was repeated at least three times.
(§3) There is, however, no commercially available FGFR1 mutant kinase to validate this. Therefore, we constructed Ba/F3 model cells stably expressing FGFR1‐WT, K656E, K656N, V561M, and V561F mutations.

Ba/F3‐FGFR1 = experiment: CCK-8 proliferation assay in Ba/F3 stable cells; format: cell-based; details: Mus musculus, read-out: IC50 (μΜ) Ba/F3‐FGFR1
Protocol: as §1, §2, §3

NCI‐H716 = experiment: CCK-8 cell proliferation assay; format: cell-based; details: Homo sapiens, NCI-H716; FGFR2 amplification; CCK-8, 72 h; read-out: antiproliferative IC50, NCI‐H716
Protocol: (§4) The base medium for MDA‐MB‐453 cell line is DMEM medium (CORNING, USA). All other cell lines were cultured in RPMI‐1640 medium supplemented with 10% FBS, 100 U/ml of penicillin, and […] of streptomycin in 5% CO2 at 37℃. The cells in the logarithmic growth phase were used for the experiments.
as §2
(§5) The expression and activation levels of FGFR1–4 in these cells were determined via western blot experiments (Figure S1).

H1581 = experiment: CCK-8 cell proliferation assay; format: cell-based; details: Homo sapiens, NCI-H1581; FGFR1 amplification; CCK-8, 72 h; read-out: antiproliferative IC50, H1581
Protocol: as §4, §2, §5

KATOIII = experiment: CCK-8 cell proliferation assay; format: cell-based; details: Homo sapiens, KATO III; FGFR2 amplification; CCK-8, 72 h; read-out: antiproliferative IC50, KATOIII
Protocol: as §4, §2, §5

SNU16 = experiment: CCK-8 cell proliferation assay; format: cell-based; details: Homo sapiens, SNU-16; FGFR2 amplification; CCK-8, 72 h; read-out: antiproliferative IC50, SNU16
Protocol: as §4, §2, §5

MDA‐MB‐453 = experiment: CCK-8 cell proliferation assay; format: cell-based; details: Homo sapiens, MDA-MB-453; FGFR4‐Y367C; CCK-8, 72 h; read-out: antiproliferative IC50, MDA‐MB‐453
Protocol: as §4, §2, §5

RT112 = experiment: CCK-8 cell proliferation assay; format: cell-based; details: Homo sapiens, RT-112; FGFR3‐TACC3; CCK-8, 72 h; read-out: antiproliferative IC50, RT112
Protocol: as §4, §2, §5

MKN‐1 = experiment: CCK-8 cell proliferation assay; format: cell-based; details: Homo sapiens, MKN-1; negative control; CCK-8, 72 h; read-out: antiproliferative IC50, MKN‐1
Protocol: as §4, §2, §5

MDA‐MB‐231 = experiment: CCK-8 cell proliferation assay; format: cell-based; details: CCK-8, 72 h
Protocol: as §4, §2, §5

Ba/F3‐FGFR1‐V561F [1] = experiment: Cell cycle analysis by flow cytometry (propidium iodide); format: cell-based
Protocol: About 6 × 10^5 cells were re‐suspended in 150 μl of BD Cytofix/Cytoperm buffer solution I for 10 min at room temperature. The cell suspensions were added with BD Cytofix/Cytoperm buffer solution II and incubated with another 10 min at room temperature, and then incubated with 200 μl of propidium iodide buffer (0.1 mg/ml) in the dark for 10 min at 4℃. Assays were performed with a Guava easyCyte flow cytometer (Merck, USA).

Ba/F3‐FGFR1‐V561F [2] = experiment: Apoptosis assay by flow cytometry (Annexin V / 7-AAD); format: cell-based
Protocol: After incubation, cells were collected and washed twice with pre‐cold PBS. About 6 × 10^5 cells were resuspended in 100 μl of 1× BD binding buffer solution (#556454, BD), and then stained with 7‐ADD (#559925, BD) and Annexin V‐PE (#556422, BD) in the dark for 15 min. Finally, 400 μl of 1×BD binding buffer solution were added to stop dyeing. The cells were then measured on a Guava easyCyte flow cytometer (Merck, USA).

Ba/F3(+IL‐3) = experiment: CCK-8 proliferation assay in parental Ba/F3 cells; format: cell-based; details: Mus musculus, read-out: IC50 (μΜ) Ba/F3(+IL‐3)
Protocol: as §1, §2, §3

[3] = test system: Ba/F3‐FGFR1‐V561F xenograft; experiment: Mouse xenograft tumor model; format: in vivo, CB17‐SCID mice
Description: (§6) All animal studies were approved by the Institutional Animal Care and Use Committee. Male CB17‐SCID mice were purchased from Vital River Laboratory Animal Technology Inc. (Beijing, China). The right flanks of SCID mice were subcutaneously injected with 2 x 10^6 Ba/F3‐FGFR1, Ba/F3‐FGFR1‐V561F, or Ba/F3‐FGFR1‐V561M cells, respectively. When the average tumor volume reached 100–200 mm^3, mice bearing tumor were randomly divided into groups and treated with compounds or vehicle. All the compounds were suspended in 0.5% CMC‐Na aqueous solution. […] The body weight and tumor volume of animals were measured once every 2 days. Tumor volumes were calculated as L×W×W/2, where L and W are the length and width of the tumor, respectively. At the experiment terminal, tumor tissues were dissected, paraffin embedded, and sectioned for hematoxylin and eosin (H&E), immunohistochemistry (IHC), and TUNEL analysis.

Ba/F3‐FGFR1 xenograft = experiment: Mouse xenograft tumor model; format: in vivo, CB17‐SCID mice; details: for tumor growth inhibition (TGI): oral gavage
Description: as §6

[4] = Homo sapiens, MDA-MB-231, 72 h, read-out: antiproliferative IC50, MDA‐MB‐231, negative control

SMILES: CCN1CCN(c2ccc(Nc3cc(N(C)C(=O)Nc4c(Cl)c(OC)cc(OC)c4Cl)ncn3)cc2)CC1 [BGJ398]
- IC50 (Ba/F3‐FGFR1‐K656N; BaF3, CCK-8, 72 h): 82 ± 5.5 nM
- IC50 (Ba/F3‐FGFR1; BaF3, CCK-8, 72 h): 31 ± 2.9 nM
- IC50 (NCI‐H716): 4.2 ± 0.8 nM
- IC50 (H1581): 19.4 ± 2.5 nM
- IC50 (KATOIII): 17.1 ± 2.4 nM
- IC50 (SNU16): 18.6 ± 6.3 nM
- IC50 (MDA‐MB‐453): 2700 ± 104 nM
- IC50 (RT112): 233 ± 76.7 nM
- IC50 (MKN‐1): 5110 ± 481 nM
- IC50 (MDA‐MB‐231; [4]): > 10000 nM
- effect on cell cycle (Ba/F3‐FGFR1‐V561F [1]; 1000 nM): weak effect
- effect on apoptosis (Ba/F3‐FGFR1‐V561F [2]; 1000 nM): weak effect
- IC50 (Ba/F3(+IL‐3); BaF3, parental cells with IL-3, CCK-8, 72 h): 5660 ± 880 nM
- tumor growth inhibition (TGI) ([3]; 30 mg/kg, oral gavage, once every day): 2.4%
- tumor growth inhibition (TGI) (Ba/F3‐FGFR1 xenograft; 10 mg/kg, once every day): 64.2%

SMILES: Cc1ccc(C(=O)Nc2ccc(CN3CCN(C)CC3)c(C(F)(F)F)c2)cc1C#Cc1cnc2[nH]ncc2c1 [GZD824]
- IC50 (Ba/F3‐FGFR1‐K656N; BaF3, 72 h): 12 ± 2 nM
- IC50 (Ba/F3‐FGFR1; BaF3, 72 h): 8.1 ± 1.1 nM
- IC50 (NCI‐H716): 4 ± 0.5 nM
- IC50 (H1581): 10.8 ± 0.8 nM
- IC50 (KATOIII): 9.8 ± 1.2 nM
- IC50 (SNU16): 14.4 ± 4.8 nM
- IC50 (MDA‐MB‐453): 148 ± 104 nM
- IC50 (RT112): 91 ± 5.7 nM
- IC50 (MKN‐1): 743 ± 31.8 nM
- IC50 (MDA‐MB‐231; [4]): > 1000 nM
- IC50 (MDA‐MB‐231; read-out: antiproliferative IC50, MDA‐MB‐231, negative control): 2000 ± 782 nM
- G0/G1 phase (Ba/F3‐FGFR1‐V561F [1]; 100 nM, 24 h): 71.13%
- apoptosis (Ba/F3‐FGFR1‐V561F [2]; 100 nM, 48 h): 71.01%
- IC50 (Ba/F3(+IL‐3); BaF3, 72 h): 1710 ± 590 nM
- tumor growth inhibition (TGI) ([3]; 20 mg/kg, p.o., q2d): 73.4%
- IHC (pFGFR1) and TUNEL in tumor tissues ([3]; 12 days): inhibits the FGFR1 activation and induces apoptosis
- tumor growth inhibition (TGI) (Ba/F3‐FGFR1 xenograft; 20 mg/kg): 76.5%
- IHC (pFGFR1) and TUNEL in tumor tissues (Ba/F3‐FGFR1 xenograft; 12 days): inhibits the FGFR1 activation and induces apoptosis
